# From patent US10337049B2, “Universal methylation profiling methods” (THE TRUSTEES OF COLUMBIA UNIVERSITY IN THE CITY OF NEW YORK, priority 2013, dated 2019)
# Key:
# [1] = Photo-irradiation of 16mer oligonucleotide, single base extension-MS analysis; type: physicochemical; conditions: primer 5′-TGCCGCACTC-3′, MS of elongated primer
# Protocol: After HPLC purification, the modified 16mer was characterized by MALDI-TOF MS yielding a peak with MW of 5001, equal to the calculated mass. Then photo-irradiation of oligo [NT] ID NO: 1) was conducted to convert C* to a U analog. The outcome for conversion of C* in DNA was detected by using single base extension-MS analysis (FIG. 7). In this analysis, the photo-irradiated oligonucleotide was annealed with a primer […] 2964) (SEQ ID NO: 2), then incubated with ddNTPs and DNA polymerase. With the aid of DNA polymerase, one of the 4 ddNTPs can be selectively incorporated onto the 3' end of the primer. Photo-chemistry induced conversion of C to U should be able to direct the incorporation of ddA, resulting in an elongated primer with a MW of 3261, otherwise ddG should be incorporated giving an elongated primer of MW 3277. […] In the control experiment, photo-irradiation of the unmodified counterpart [NT] ID NO: 3) was conducted under the same conditions. […] We also measured possible photoirradiation-induced DNA damage. Under the conditions we used (300 nm, over 10 h) no DNA damage was observed.
# [2] = Photo-irradiation of 5 position-modified deoxycytidine at about 300 nm, HPLC/UV/MS monitoring; type: physicochemical; conditions: for photochemical conversion to U analog on photo-irradiation: about 300 nm, aqueous solution, up to 12 h
# Protocol: Photo-irradiation of 5-All-OMC at about 300 nm was then conducted in aqueous solution for up to 12 h, and the reaction products separated and monitored by HPLC and UV absorption.
# Both C and 5-methyl-C remain intact after photo-irradiation under the same conditions. […] To further verify this conversion, 5-All-OMU was synthesized and characterized. […] The photochemically generated 5-All-OMU was also characterized by ^1HNMR.
# [3] = Photoirradiation of 5-PhAll-OMC with 350 nm light in the presence of triplet sensitizer thioxanthone, HPLC analysis; type: physicochemical; conditions: 20 min
# Description: 5-PhAll-OMC was irradiated with 350 nm light in the presence of the triplet photosensitizer thioxanthone (TX).
# The new product was found 1 mass unit higher than the starting material 5-PhAll-OMC, indicating possible U analog was generated from 5-PhAll-OMC. […] The ^13C NMR spectra, shown in FIG. 27, unambiguously confirm the formation of a [2+2] cycloadduct in either straight or cross configuration.
# [4] = Laser flash photolysis, triplet energy transfer from thioxanthone; conditions: 355 nm pulsed laser, argon saturated acetonitrile, quencher 0 to 0.25 mM
# pCa17 plasmid = experiment: in vivo functional assay / restriction protection assay of M.SssI variants (HpaII digestion of isolated plasmid); conditions: 200 ng plasmid, 1 U HpaII, 37° C., 1 hour, agarose gel
molecule,measurement,setting,value
"5′-TACGACGAGTGCGGCA-3′: unmodified counterpart 16mer, control (DNA, backbone not given here)",ddNTP incorporated in single base extension after photo-irradiation of template,[1],ddGTP
"C=CCOCc1cn([C@H]2C[C@H](O)[C@@H](CO)O2)c(=O)nc1N [5-All-OMC, 5-allyloxymethyl-dC]",photochemical conversion to U analog on photo-irradiation,[2],high efficiency
same,HPLC profile during photo-irradiation,[2]; after 3 h of irradiation,the main peak is the starting material
same,"HPLC profile during photo-irradiation, starting material",[2]; after 12 h photo-irradiation,mostly consumed
"Cc1c[nH]c(=O)nc1N [5-methyl-C, 5-methylcytosine]",photochemical conversion to U analog on photo-irradiation,[2],remain intact
"Nc1cc[nH]c(=O)n1 [C, Cytosine]",ddNTP incorporated in single base extension after photo-irradiation of template,[1],ddATP
same,photochemical conversion to U analog on photo-irradiation,[2],remain intact
"O=c1c2ccccc2sc2ccccc12 [TX, thioxanthone]",concentration of the sensitizer after photoirradiation,[3],remained unchanged
OCC=Cc1ccccc1 [cinnamyl alcohol],"rate constant of quenching of thioxanthone triplet (triplet energy transfer), kq",[4],7.8e+09 M⁻¹ s⁻¹
wild-type: wild type CpG specific DNA methyltransferase M.SssI expressed from pCAL7,resistance of isolated M.SssI expressing plasmid to HpaII digestion,pCa17 plasmid,completely resistant
